IC50 and solubility data for twelve compounds are collected here from ChEMBL document CHEMBL4257544, “Synthesis and biological evaluation of novel asymmetric naphthalene diimide derivatives as anticancer agents depending on ROS generation” (Medchemcomm, 2018).

In general, IC50 refers to the concentration at which inhibition is half-maximal.

One data set concerns HepG2. Briefly: Cytotoxicity against human HepG2 cells after 48 hrs by MTT assay. The format is functional, cell-based. The note with it: HepG2, 48 h. A general note: Formazan colour is commonly taken as a measure of viable cells.
Another data set concerns SMMC-7721. Briefly: Cytotoxicity against human SMMC7721 cells after 48 hrs by MTT assay. In kind it is functional, cell-based. The settings on record: SMMC-7721, 48 h.
The test system of the next data set is MDA-MB-231. The experiment in a line: Cytotoxicity against human MDA-MB-231 cells after 48 hrs by MTT assay. In kind it is functional, cell-based. The settings on record: MDA-MB-231, 48 h.
Another data set has as its system MCF7. Briefly: Cytotoxicity against human MCF7 cells after 48 hrs by MTT assay. The format is functional, cell-based. The settings on record: MCF7, 48 h.
For another data set, the system named is HCT-116. Briefly: Cytotoxicity against human HCT116 cells after 48 hrs by MTT assay. The note with it: HCT-116, 48 h. The format is functional, cell-based.
Data set [1] can be described thus: Solubility of the compound. In kind it is physicochemical.

Turning to `CCCCN1C(=O)c2ccc3c4c(ccc(c24)C1=O)C(=O)N(C1CC1)C3=O`, the IC50 in the data set on HepG2 was greater than 50 µM; in the data set on SMMC-7721 it was greater than 50 µM; in the data set on MDA-MB-231 it was greater than 50 µM; with MCF7, greater than 50 µM; in the data set on HCT-116, 16.3 µM. Also, in data set [1], the solubility entry is listed as “Insoluble”.
For `CN(C)CCN1C(=O)c2cccc3cc(N)cc(c23)C1=O` [AMONAFIDE], the IC50 was 9.45 µM with HepG2; 9.37 µM in the data set with SMMC-7721; 6.62 µM with MDA-MB-231; 12.9 µM with MCF7; 6.46 µM with HCT-116.
For `O=C1c2ccc3c4c(ccc(c24)C(=O)N1CCCO)C(=O)N(CCCN1CCOCC1)C3=O` the same measures were 3.08 µM, 2.7 µM, 7.64 µM, 6.98 µM and 4.35 µM.
For `CCCCN1C(=O)c2ccc3c4c(ccc(c24)C1=O)C(=O)N(c1ncccn1)C3=O` the same measures were 17 µM, 35.1 µM, 15.1 µM, 12.6 µM and 9.22 µM.
As for `CN(C)CCCN1C(=O)c2ccc3c4c(ccc(c24)C1=O)C(=O)N(CCCO)C3=O`, the IC50 in the data set on HepG2 turned out to be 5.96 µM; in the data set with SMMC-7721, 4.44 µM; with MDA-MB-231 it was 6.21 µM; in the data set on MCF7 it was 3.36 µM; with HCT-116, 5.29 µM.
For `CCCCN1C(=O)c2ccc3c4c(ccc(c24)C1=O)C(=O)N(c1cccnc1)C3=O` the same measures were 35.9 µM, 37.9 µM, greater than 50 µM, greater than 50 µM and 36.3 µM.
`CCCCN1C(=O)c2ccc3c4c(ccc(c24)C1=O)C(=O)N(CC1CC1)C3=O`: the IC50 is greater than 50 µM in the data set with HepG2; greater than 50 µM in the data set on SMMC-7721; greater than 50 µM in the data set on MDA-MB-231; greater than 50 µM in the data set on MCF7; 32.3 µM with HCT-116. Besides, the solubility entry in data set [1] is “Insoluble”.
Turning to `CCCCN1C(=O)c2ccc3c4c(ccc(c24)C1=O)C(=O)N(CC(C)C)C3=O`, the IC50 in the data set on HepG2 is 45.2 µM; in the data set on SMMC-7721, 36.4 µM; in the data set on MDA-MB-231, greater than 50 µM; with MCF7 it was 39.6 µM; with HCT-116, 28.2 µM. In addition, the solubility entry in data set [1] is listed as “Insoluble”.
On to `CCCCN1C(=O)c2ccc3c4c(ccc(c24)C1=O)C(=O)N(CCC)C3=O`, for which the IC50 with HepG2, in the data set on SMMC-7721, in the data set with MDA-MB-231, in the data set on MCF7 and with HCT-116 was greater than 50 µM in each case. The solubility entry in data set [1] is “Insoluble”.
Consider `CCCCN1C(=O)c2ccc3c4c(ccc(c24)C1=O)C(=O)N(C1CCCCC1)C3=O`, for which the IC50 in the data set with HepG2 was greater than 50 µM; with SMMC-7721, greater than 50 µM; in the data set on MDA-MB-231, greater than 50 µM; with MCF7, greater than 50 µM; in the data set with HCT-116, 45.9 µM. Further, the solubility entry in data set [1] is recorded as “Insoluble”.
`CC(C)CN1C(=O)c2ccc3c4c(ccc(c24)C1=O)C(=O)N(CCCO)C3=O`: the IC50 worked out at 4.14 µM with HepG2; 3.8 µM in the data set on SMMC-7721; 5.39 µM with MDA-MB-231; 4.78 µM in the data set with MCF7; 8.29 µM in the data set on HCT-116.
The like results for `CCCCN1C(=O)c2ccc3c4c(ccc(c24)C1=O)C(=O)N(CCCN1CCOCC1)C3=O` were, in that order, 30.6 µM, 25.4 µM, 18.2 µM, 21.4 µM and 32.7 µM.
